Experimental data from PubChem BioAssay AID2060601 (Molecular Pharmacology Branch, DTP, NCI, 2025).
One block for each compound: values may come before it.

Tested on: 874868-142-R-J2-PDC complex spheroids, growth % test/control
Test: Anticancer human tumor 874868-142-R-J2-PDC patient-derived head and neck squamous carcinoma cell line growth inhibition [CLK]
Conditions: for IC50: curve of first compound; for viability, T/C: stronger effect = lower value
How it was run: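 Multi-cell-type spheroids combined patient-derived tumor cells with HUVEC endothelial cells and human mesenchymal stem cells. Paired agents were dosed in half-log steps down from about clinical Cmax, or from 10 microM where Cmax was unknown.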

[1] = second compound 0.0316 µM, first compound 0.0316 µM
[2] = second compound 0.0316 µM, first compound 0.1 µM
[3] = second compound 0.0316 µM, first compound 0.316 µM
[4] = second compound 0.0316 µM, first compound 1 µM
[5] = second compound 0.0316 µM, first compound 3.16 µM
[6] = second compound 0.0316 µM, first compound 10 µM
[7] = second compound 0.1 µM, first compound 0.0316 µM
[8] = second compound 0.1 µM, first compound 0.1 µM
[9] = second compound 0.1 µM, first compound 0.316 µM
[10] = second compound 0.1 µM, first compound 1 µM
[11] = second compound 0.1 µM, first compound 3.16 µM
[12] = second compound 0.1 µM, first compound 10 µM
[13] = second compound 0.316 µM, first compound 0.0316 µM
[14] = second compound 0.316 µM, first compound 0.1 µM
[15] = second compound 0.316 µM, first compound 0.316 µM
[16] = second compound 0.316 µM, first compound 1 µM
[17] = second compound 0.316 µM, first compound 3.16 µM
[18] = second compound 0.316 µM, first compound 10 µM
[19] = second compound 1 µM, first compound 0.0316 µM
[20] = second compound 1 µM, first compound 0.1 µM
[21] = second compound 1 µM, first compound 0.316 µM
[22] = second compound 1 µM, first compound 1 µM
[23] = second compound 1 µM, first compound 3.16 µM
[24] = second compound 1 µM, first compound 10 µM
[25] = second compound 3.16 µM, first compound 0.0316 µM
[26] = second compound 3.16 µM, first compound 0.1 µM
[27] = second compound 3.16 µM, first compound 0.316 µM
[28] = second compound 3.16 µM, first compound 1 µM
[29] = second compound 3.16 µM, first compound 3.16 µM
[30] = second compound 3.16 µM, first compound 10 µM
[31] = second compound 10 µM, first compound 0.0316 µM
[32] = second compound 10 µM, first compound 0.1 µM
[33] = second compound 10 µM, first compound 0.316 µM
[34] = second compound 10 µM, first compound 1 µM
[35] = second compound 10 µM, first compound 3.16 µM
[36] = second compound 10 µM, first compound 10 µM
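Note: spheroids exposed to the compounds for 7 days.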
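Throughout, for viability, T/C: 100% = DMSO vehicle control viability.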

IC50 (second compound 0.0316 µM): 7.61 µM
IC50 (second compound 0.1 µM): 8.1 µM
IC50 (second compound 0.316 µM): 5.32 µM
IC50 (second compound 1 µM): 3.2 µM
IC50 (second compound 3.16 µM): < 0.0316 µM
IC50 (second compound 10 µM): < 0.0316 µM
SMILES: CC1(C)CCC(CN2CCN(c3ccc(C(=O)NS(=O)(=O)c4ccc(NCC5CCOCC5)c([N+](=O)[O-])c4)c(Oc4cnc5[nH]ccc5c4)c3)CC2)=C(c2ccc(Cl)cc2)C1 + CNC(=O)c1ccc(Nc2nc(OC3CCCC3)c3c(-c4ccc5nc(C)oc5c4)c[nH]c3n2)c(OC)c1
viability, T/C [1]: 104%
viability, T/C [2]: 103%
viability, T/C [3]: 105%
viability, T/C [4]: 92.7%
viability, T/C [5]: 117%
viability, T/C [6]: 33%
viability, T/C [7]: 95.8%
viability, T/C [8]: 89.4%
viability, T/C [9]: 86.7%
viability, T/C [10]: 84.2%
viability, T/C [11]: 94.6%
viability, T/C [12]: 41.1%
viability, T/C [13]: 56.3%
viability, T/C [14]: 67.9%
viability, T/C [15]: 72.4%
viability, T/C [16]: 62.5%
viability, T/C [17]: 51%
viability, T/C [18]: 44.2%
viability, T/C [19]: 51.8%
viability, T/C [20]: 51.5%
viability, T/C [21]: 50.6%
viability, T/C [22]: 46.1%
viability, T/C [23]: 51.1%
viability, T/C [24]: 34.1%
viability, T/C [25]: 46.2%
viability, T/C [26]: 48.4%
viability, T/C [27]: 39.1%
viability, T/C [28]: 41.6%
viability, T/C [29]: 43.8%
viability, T/C [30]: 39.8%
viability, T/C [31]: 40.5%
viability, T/C [32]: 51%
viability, T/C [33]: 45.6%
viability, T/C [34]: 47.7%
viability, T/C [35]: 57.2%
viability, T/C [36]: 31.8%

IC50 (second compound 0.0316 µM): 5.96 µM
IC50 (second compound 0.1 µM): 2.86 µM
IC50 (second compound 0.316 µM): 0.404 µM
IC50 (second compound 1 µM): < 0.0316 µM
IC50 (second compound 3.16 µM): < 0.0316 µM
IC50 (second compound 10 µM): < 0.0316 µM
SMILES: CC1COCCN1c1cc(C2(S(C)(=N)=O)CC2)nc(-c2ccnc3[nH]ccc23)n1 (centres undefined) + CNC(=O)c1ccc(Nc2nc(OC3CCCC3)c3c(-c4ccc5nc(C)oc5c4)c[nH]c3n2)c(OC)c1
viability, T/C [1]: 125%
viability, T/C [2]: 96.2%
viability, T/C [3]: 91.9%
viability, T/C [4]: 69.8%
viability, T/C [5]: 53.9%
viability, T/C [6]: 45.9%
viability, T/C [7]: 101%
viability, T/C [8]: 79.1%
viability, T/C [9]: 73.1%
viability, T/C [10]: 55%
viability, T/C [11]: 54.8%
viability, T/C [12]: 39%
viability, T/C [13]: 51.2%
viability, T/C [14]: 53.8%
viability, T/C [15]: 53%
viability, T/C [16]: 40.2%
viability, T/C [17]: 37.7%
viability, T/C [18]: 35.6%
viability, T/C [19]: 44.7%
viability, T/C [20]: 47.6%
viability, T/C [21]: 50.8%
viability, T/C [22]: 35%
viability, T/C [23]: 21.8%
viability, T/C [24]: 23.1%
viability, T/C [25]: 42.5%
viability, T/C [26]: 46.5%
viability, T/C [27]: 44.4%
viability, T/C [28]: 34.9%
viability, T/C [29]: 34.6%
viability, T/C [30]: 27.8%
viability, T/C [31]: 44.1%
viability, T/C [32]: 37.9%
viability, T/C [33]: 41.7%
viability, T/C [34]: 29.6%
viability, T/C [35]: 26.6%
viability, T/C [36]: 17.2%
